# Test results published in patent US20230302159A1, “COMPOUNDS AND COMPOSITIONS FOR TUMOR DETECTION AND SURGICAL GUIDANCE” (Cornell University, priority 2020, published 2023).
# Like-named read-outs stand apart in the source and are kept apart here. Marks after values point to notes of the source that are not given here.
# Tests used:
# Assay type in all cases: physicochemical
# [1] = Solubility of the CypH dyes (Table 1)
# Method: (§1) Characterization: All new CypH dyes were characterized by proton NMR and mass spectrometry to confirm identity. NMR data was consistent with the structure and mass spectrometry results gave the expected mass of the dye±0.5 amu. An HPLC method was developed (see below) and used to assess dye purity. […] Retention times on the column generally correlated with lipophilicity of the dyes with water soluble dyes containing sulfate groups eluting out earlier (@10.6 min for CypH-3, 6, 9) than CypH-1 (@11.9 min) and the more lipophilic dyes later. Optical properties of the dyes, acid dissociation constants and solubilities were also determined. Synthetic intermediates were also characterized by proton NMR.
# [2] = Optical properties of the CypH dyes: absorbance maximum and extinction coefficient in EtOH (Table 1); settings: for Ex Coeff (M^−1cm^−1) @ Abs Max: at absorbance maximum
# Method: as §1
# [3] = Fluorescence properties of the CypH dyes at pH 5.0 and pH 7.5 (Table 2); settings: for Ratio Intensity pH 5.0/7.5: fluorescence intensity pH 5.0 over pH 7.5
# Text: The excitation and emission maxima of CypH-1 are 760 and 777 nm, respectively. The signal intensity ratio of pH 5 over pH 7.5 was about 10. The meso-bridge ring size, lipophilicity and electro-density of CypH-1 was modified to provide better optical property. […] The best compound from this group was CypH-5 whose fluorescence ratio of pH 5.0/pH 7.5 was increased to 22. Based on this initial structure and property relationship, the second round of 10 new analogs were designed using CypH-5 as the core, focusing on modifying the electron density on the aniline ring and the indolinium ring. Various alkyl groups, such as methyl, ethyl, propyl, isopropyl and their combinations, were applied to these two positions.
# The CypH analogs with other longer alkyl chains had much lower background fluorescence. […] Among them, CypH-11, which has a methyl isopropyl aniline and an isopropyl group on the indolinium ring, gave a 112-fold enhancement in fluorescence signal. CypH-11 has absorbance and emission maxima at 766 nm and 785 nm, respectively (FIG. 4) and was selected as the lead compound (vide infra).
# [4] = organic solvent or mixture, in EtOH, read-out: Solubility
Compound,Solubility ([1]; in H2O),Ex Coeff (M^−1cm^−1) @ Abs Max [2],Abs. Max (nm) in EtOH [2],Ratio Intensity pH 5.0/7.5 [3],FL Intensity pH 5.0 [3],FL Max (nm) pH 5.0 [3],FL Intensity pH 7.5 [3],FL Max (nm) pH 7.5 [3],Solubility ([1]; in EtOH),"Solubility [1, 4]",Ratio Intensity pH 5.0/7.5 ([3]; listed as 5)
CCN(C)c1ccc(OC2=C(/C=C/C3=[N+](CCCS(=O)(=O)[O-])c4ccccc4C3(C)C)CCC/C2=C\C=C2\N(CCCS(=O)(=O)[O-])c3ccccc3C2(C)C)cc1.[Na+] [CypH-6],>1 mM in,"150,400 M^−1cm^−1",768# nm,10.8,4359,789 nm,405,791 nm,–,–,–
CCCN1/C(=C/C=C2\CCCC(/C=C/C3=[N+](CCC)c4ccccc4C3(C)C)=C2Oc2ccc(N(C)CC)cc2)C(C)(C)c2ccccc21.[I-] [CypH-18],–,"257,300 M^−1cm^−1",772 nm,38.2,4553,792 nm,117,782 nm,>1 mM in,–,–
CCCN1/C(=C/C=C2\CCCC(/C=C/C3=[N+](CCC)c4ccccc4C3(C)C)=C2Oc2ccc(N(C)C(C)C)cc2)C(C)(C)c2ccccc21.[I-] [CypH-16],–,"248,000 M^−1cm^−1",771 nm,26.6,4847,791 nm,182,783 nm,>1 mM in,–,–
CN(C)c1ccc(OC2=C(/C=C/C3=[N+](C)c4ccccc4C3(C)C)CC/C2=C\C=C2\N(C)c3ccccc3C2(C)C)cc1.[Cl-] [CypH-4],–,"58,000 M^−1cm^−1",775 nm,23.2,1924,801 nm,83,790 nm,>1 mM in,–,–
CCN1/C(=C/C=C2\CCCC(/C=C/C3=[N+](CC)c4ccccc4C3(C)C)=C2Oc2ccc(N(C)C)cc2)C(C)(C)c2ccccc21 [CypH-2],–,"139,100 M^−1cm^−1",764 nm,30.6,4254,787 nm,139,786 nm,–,> 1000 µM,–
CC(C)CN1/C(=C/C=C2\CCCC(/C=C/C3=[N+](CC(C)C)c4ccccc4C3(C)C)=C2Oc2ccc(N(C)C(C)C)cc2)C(C)(C)c2ccccc21.[I-] [CypH-13],–,"218,100 M^−1cm^−1",774 nm,35.0,4204,796 nm,120,790 nm,>1 mM in,–,–
CCN(C)c1ccc(OC2=C(/C=C/C3=[N+](C)c4ccccc4C3(C)C)CCC/C2=C\C=C2\N(C)c3ccccc3C2(C)C)cc1 [CypH-5],–,"134,000 M^−1cm^−1",762 nm,22,5089,786 nm,227,787 nm,–,> 1000 µM,22.4
CC(C)N(C)c1ccc(OC2=C(/C=C/C3=[N+](CCCS(=O)(=O)[O-])c4ccccc4C3(C)C)CCC/C2=C\C=C2\N(CCCS(=O)(=O)[O-])c3ccccc3C2(C)C)cc1.[Na+] [CypH-9],>1 mM in,"176,300 M^−1cm^−1",769# nm,5.3,5125,793 nm,972,789 nm,–,–,–
CCN(C)c1ccc(OC2=C(/C=C/C3=[N+](C)c4ccccc4C3(C)C)CC/C2=C\C=C2\N(C)c3ccccc3C2(C)C)cc1.[Cl-] [CypH-8],–,"72,700 M^−1cm^−1",777 nm,41.4,2816,801 nm,68,791 nm,>1 mM in,–,–
CCCN1/C(=C/C=C2\CCCC(/C=C/C3=[N+](CCC)c4ccccc4C3(C)C)=C2Oc2ccc(N(C)C)cc2)C(C)(C)c2ccccc21.[I-] [CypH-15],–,"251,500 M^−1cm^−1",772 nm,53.2,4313,791 nm,81,786 nm,>1 mM in,–,–
CCN(C)c1ccc(OC2=C(/C=C/C3=[N+](CC(C)C)c4ccccc4C3(C)C)CCC/C2=C\C=C2\N(CC(C)C)c3ccccc3C2(C)C)cc1.[I-] [CypH-20],–,"218,600 M^−1cm^−1",774 nm,35.1,3646,794 nm,104,789 nm,>1 mM in,–,–
CC(C)N(C)c1ccc(OC2=C(/C=C/C3=[N+](C)c4ccccc4C3(C)C)CCC/C2=C\C=C2\N(C)c3ccccc3C2(C)C)cc1 [CypH-12],–,"255,600 M^−1cm^−1",767 nm,8.7,4285,787 nm,493,784 nm,–,> 1000 µM,–
CCN1/C(=C/C=C2\CCCC(/C=C/C3=[N+](CC)c4ccccc4C3(C)C)=C2Oc2ccc(N(C)C(C)C)cc2)C(C)(C)c2ccccc21 [CypH-10],–,"175,400 M^−1cm^−1",765 nm,13.0,5380,788 nm,414,781 nm,–,> 1000 µM,–
CCN(C)c1ccc(OC2=C(/C=C/C3=[N+](CC)c4ccccc4C3(C)C)CCC/C2=C\C=C2\N(CC)c3ccccc3C2(C)C)cc1 [CypH-7],–,"179,500 M^−1cm^−1",764 nm,27.8,5681,788 nm,204,786 nm,–,> 1000 µM,–
CCN(C)c1ccc(OC2=C(/C=C/C3=[N+](C(C)C)c4ccccc4C3(C)C)CCC/C2=C\C=C2\N(C(C)C)c3ccccc3C2(C)C)cc1 [CypH-17],–,"269,100 M^−1cm^−1",770 nm,57.3,4468,791 nm,78,782 nm,–,> 1000 µM,–
CC(C)CN1/C(=C/C=C2\CCCC(/C=C/C3=[N+](CC(C)C)c4ccccc4C3(C)C)=C2Oc2ccc(N(C)C)cc2)C(C)(C)c2ccccc21.[I-] [CypH-19],–,"240,900 M^−1cm^−1",774 nm,68.2,3137,794 nm,46,784 nm,>1 mM in,–,–
